Measurements: ChEMBL document CHEMBL5137013 (Eur J Med Chem, 2022)
Calls of active or inactive are those of the source. The calls are words filed in the database; no cut-off is given here.

Legend:
MCF7 = test: Cytotoxicity against human MCF7 cells assessed as reduction in cell viability measured after 24 hrs by MTT assay; conditions: MCF7, 24 h
MDA-MB-231 = test: Cytotoxicity against human MDA-MB-231 cells assessed as reduction in cell viability measured after 24 hrs by MTT assay; type: functional, cell-based; conditions: MDA-MB-231, 24 h
[1] = Cytotoxicity against human A549/TxR cells assessed as reduction in cell viability measured after 24 hrs by MTT assay; type: functional, cell-based
HT-29 [2] = test: Inhibition of colony formation in human HT-29 cells at 100 nM measured after 24 hrs by crystal violet staining based assay; type: functional
[3] = (§1) Inhibition of porcine brain tubulin polymerization measured at 1 min interval for 60 mins by fluorescence assay; design: species or system Sus scrofa
Sus scrofa = species: Sus scrofa; test: as §1; conditions: dose 1.25-5 µM, DDE = dose-dependent effect
Tubulin (Homo sapiens) [4] = molecular target: T1, Tubulin (Homo sapiens) (UniProt P68371+Q9H4B7+P0DPH7+P68366+Q13509+Q71U36+P04350+Q3ZCM7+P07437+P68363+Q9BQE3+Q6PEY2+Q13885+Q9BVA1+Q9BUF5); test: Displacement of [3H] colchicine from tubulin (unknown origin) at 5 uM measured after 2 hrs by scintillation counting analysis relative to control; type: protein-complex assay
Tubulin (Homo sapiens) [5] = molecular target: T1, Tubulin (Homo sapiens); test: Induction of microtubule disruption in human HT-29 cells measured after 6 hrs by immunofluorescence assay; type: cell-based; conditions: dose 25-100 nM, DDE = dose-dependent effect
A549 [6] = test: Antimigratory activity against human A549 cells assessed as reduction in scratch wound recovery measured after 24 hrs by scratch wound healing assay; type: functional, cell-based; conditions: dose 15-250 nM, DDE = dose-dependent effect
A549 [7] = test: Antimigratory activity against human A549 cells assessed as reduction in scratch wound recovery at 60 nM measured after 24 hrs by scratch wound healing assay relative to control; type: functional; design: scale not given: the % may be the effect or the level left
A549 [8] = test: Antimigratory activity against human A549 cells assessed as reduction in number of penetrated cells at 12.5 to 100 nM measured after 24 hrs by crystal violet staining based transwell assay; type: functional, cell-based; conditions: dose 12.5-100 nM
HT-29 [9] = test: Cell cycle arrest in human HT-29 cells assessed as effect on cdk7 expression at 25 to 100 nM measured after 24 hrs by Western blot analysis; type: functional, cell-based; conditions: dose 25-100 nM
HT-29 [10] = test: Cell cycle arrest in human HT-29 cells assessed as effect on cyclin B1 expression at 25 to 100 nM measured after 24 hrs by Western blot analysis; type: functional, cell-based; conditions: dose 25-100 nM
HT-29 [11] = test: Induction of apoptosis in human HT-29 cells assessed as increase in cleaved caspase-3 expression at 25 to 100 nM measured after 24 hrs by Western blot analysis; type: functional, cell-based; conditions: dose 25-100 nM
HT-29 [12] = test: Induction of apoptosis in human HT-29 cells assessed as increase in cleaved PARP expression at 25 to 100 nM measured after 24 hrs by Western blot analysis; type: functional, cell-based; conditions: dose 25-100 nM
[13] = Toxicity in human HT-29 cells xenografted BALB/c nude mouse assessed as effect on liver at 5 to 10 mg/kg, ip administered as 2 days interval for 3 weeks and measured 3 weeks post-initial dosing by H and E staining based histopathological analysis; type: organism-based; conditions: in vivo, 504 h, dose 5-10 mg/kg
[14] = Toxicity in human HT-29 cells xenografted BALB/c nude mouse assessed as effect on lung at 5 to 10 mg/kg, ip administered as 2 days interval for 3 weeks and measured 3 weeks post-initial dosing by H and E staining based histopathological analysis; type: organism-based; conditions: in vivo, 504 h, dose 5-10 mg/kg
[15] = Clearance in Sprague-Dawley rat at 10 mg/kg, iv by HPLC-MS/MS analysis; type: ADME, organism-based; conditions: in vivo

- IC50 [3]: 1090 nM
- inhibition (Sus scrofa): Dde
- inhibition (Tubulin (Homo sapiens) [4]): 93.5%
- Activity (Tubulin (Homo sapiens) [5]): Dde
- CL [15]: 29.3 mL/min/kg
Structure (SMILES): COC(=O)c1cc2c(cc1Nc1cc(OC)c(OC)c(OC)c1)OCCO2
- IC50 (MCF7): 140 nM
- IC50 (MDA-MB-231): 100 nM
- IC50 [1]: 310 nM
- inhibition at 0.1 µM (HT-29 [2]): 100%
- Activity (A549 [6]): Dde
- Activity (A549 [7]): 85.2%
- Activity (A549 [8]): Active
- Activity (HT-29 [9]): Active
- Activity (HT-29 [10]): Active
- Activity (HT-29 [11]): Active
- Activity (HT-29 [12]): Active
- Activity [13]: Non-Toxic
- Activity [14]: Non-Toxic
